Laboratory results from patent US9518026B2, “5-aminopyrazole-4-carboxamide inhibitors of CDPK1 from T. gondii and C. parvum” (UNIVERSITY OF WASHINGTON THROUGH ITS CENTER FOR …, priority 2013, dated 2016).
Where two headings read alike, the source gives them in different places.

Columns and labels:
CpCDPK1 = CpCDPK1 (Cryptosporidium parvum (strain Iowa II), UniProt A3FQ16); assay: biochemical; conditions: Table 1; KinaseGlo, Syntide 2 peptide substrate; read-out: CpCDPK1 IC50
TgCDPK1 = TgCDPK1 (Toxoplasma gondii, UniProt Q9BJF5); assay: biochemical; conditions: read-out: TgCDPK1 IC50
Sequence of TgCDPK1 (Q9BJF5 1-507): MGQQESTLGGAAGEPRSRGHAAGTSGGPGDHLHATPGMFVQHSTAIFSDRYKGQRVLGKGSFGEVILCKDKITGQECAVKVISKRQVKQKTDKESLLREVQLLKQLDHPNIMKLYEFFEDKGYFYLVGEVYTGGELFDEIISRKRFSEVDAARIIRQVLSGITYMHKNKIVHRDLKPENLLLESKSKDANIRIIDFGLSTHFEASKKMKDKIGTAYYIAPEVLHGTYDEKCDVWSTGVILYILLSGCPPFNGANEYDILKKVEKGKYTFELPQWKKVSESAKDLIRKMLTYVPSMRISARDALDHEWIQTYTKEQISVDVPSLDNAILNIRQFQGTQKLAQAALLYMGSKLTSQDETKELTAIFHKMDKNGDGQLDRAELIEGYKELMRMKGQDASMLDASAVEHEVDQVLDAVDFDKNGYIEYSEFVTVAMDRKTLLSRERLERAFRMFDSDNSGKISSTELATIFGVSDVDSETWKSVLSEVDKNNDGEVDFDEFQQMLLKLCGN

[1] = Table 1, KinaseGlo, Syntide 2 peptide substrate

Sequence of CpCDPK1 (A3FQ16 1-538): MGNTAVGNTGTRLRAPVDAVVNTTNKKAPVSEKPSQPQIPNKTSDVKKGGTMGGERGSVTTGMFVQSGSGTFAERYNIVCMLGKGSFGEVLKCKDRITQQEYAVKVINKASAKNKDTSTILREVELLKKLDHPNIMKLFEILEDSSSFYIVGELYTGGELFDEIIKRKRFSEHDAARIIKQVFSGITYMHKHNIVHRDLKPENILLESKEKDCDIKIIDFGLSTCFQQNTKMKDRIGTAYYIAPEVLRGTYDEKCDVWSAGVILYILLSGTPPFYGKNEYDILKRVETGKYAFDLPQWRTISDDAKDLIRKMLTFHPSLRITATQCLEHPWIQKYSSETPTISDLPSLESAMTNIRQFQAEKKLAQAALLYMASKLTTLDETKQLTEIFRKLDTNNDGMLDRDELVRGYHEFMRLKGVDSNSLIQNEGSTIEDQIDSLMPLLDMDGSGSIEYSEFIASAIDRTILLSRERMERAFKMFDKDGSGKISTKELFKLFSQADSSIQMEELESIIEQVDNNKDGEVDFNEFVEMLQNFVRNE

| SMILES | IC50 (CpCDPK1) [nM] | IC50 (TgCDPK1) [nM] | IC50 (TgCDPK1; [1]) [nM] |
| --- | --- | --- | --- |
| CCOc1ccc2cc(-c3nn(C(C)(C)C)c4ncnc(N)c34)ccc2c1 [Compound 4, 1-tert-butyl-3-(6-ethoxynaphthalen-2-yl)-1H-pyrazolo[3,4-d]pyrimidin-4-amine, reference compound] | 43 |  |  |
| NC(=O)c1c(-c2ccc3ccccc3c2)nn(CC2CCNCC2)c1N [Compound 6, 5-amino-3-(naphthalen-2-yl)-1-(piperidin-4-ylmethyl)-1H-pyrazole-4-carboxamide] | 64 | 35 |  |
| Nc1ncnc2c1c(-c1ccc3ccccc3c1)nn2CC1CCNCC1 [Compound 7, 3-(naphthalen-2-yl)-1-(piperidin-4-ylmethyl)-1H-pyrazolo[3,4-d]pyrimidin-4-amine, reference compound] | 1 |  |  |
| CCOc1ccc2cc(-c3nn(CC4CCN(C)CC4)c(N)c3C(N)=O)ccc2c1 [Compound 8, 5-amino-3-(6-ethoxynaphthalen-2-yl)-1-((1-methylpiperidin-4-yl)methyl)-1H-pyrazole-4-carboxamide] | 9 | 11 |  |
| COc1ccc2cc(-c3nn(CC4CCN(C)CC4)c(N)c3C(N)=O)ccc2c1 [Compound 10, 5-amino-3-(6-methoxynaphthalen-2-yl)-1-((1-methylpiperidin-4-yl)methyl)-1H-pyrazole-4-carboxamide] | 14 |  | 35 |
| COc1ccc2cc(-c3n[nH]c(N)c3C(N)=O)ccc2c1 [Compound 11, 5-amino-3-(6-methoxynaphthalen-2-yl)-1H-pyrazole-4-carboxamide] | 48 | 81 |  |
| CCn1nc(-c2ccc3ccccc3c2)c(C(N)=O)c1N [Compound 12, 5-amino-1-ethyl-3-(naphthalen-2-yl)-1H-pyrazole-4-carboxamide] | 11 | 8 |  |
| CC(C)n1nc(-c2ccc3ccccc3c2)c(C(N)=O)c1N [Compound 13, 5-amino-1-isopropyl-3-(naphthalen-2-yl)-1H-pyrazole-4-carboxamide] | 7 |  |  |
| CC(C)Cn1nc(-c2ccc3ccccc3c2)c(C(N)=O)c1N [Compound 14, 5-amino-1-isobutyl-3-(naphthalen-2-yl)-1H-pyrazole-4-carboxamide] | 16 |  |  |
| NC(=O)c1c(-c2ccc3ccccc3c2)nn(CC2CC2)c1N [Compound 15, 5-amino-1-(cyclopropylmethyl)-3-(naphthalen-2-yl)-1H-pyrazole-4-carboxamide] | 10 | 7 |  |
| NC(=O)c1c(-c2ccc3ccccc3c2)nn(CC2CCCCC2)c1N [Compound 16, 5-amino-1-(cyclohexylmethyl)-3-(naphthalen-2-yl)-1H-pyrazole-4-carboxamide] | 150 | 59 |  |
| NC(=O)c1c(-c2ccc3ccccc3c2)nn(C2CCCCC2)c1N [Compound 17, 5-amino-1-cyclohexyl-3-(naphthalen-2-yl)-1H-pyrazole-4-carboxamide] | 16 | 11 |  |
| CN1CCC(n2nc(-c3ccc4ccccc4c3)c(C(N)=O)c2N)CC1 [Compound 20, 5-amino-1-(1-methylpiperidin-4-yl)-3-(naphthalen-2-yl)-1H-pyrazole-4-carboxamide] | 13 | 26 |  |
| CN1CCC(Cn2nc(-c3ccc4ccccc4c3)c(C(N)=O)c2N)CC1 [Compound 21, 5-amino-1-((1-methylpiperidin-4-yl)methyl)-3-(naphthalen-2-yl)-1H-pyrazole-4-carboxamide] | 17 | 39 |  |
| NC(=O)c1c(-c2ccc3ccccc3c2)nn(CCO)c1N [Compound 22, 5-amino-1-(2-hydroxyethyl)-3-(naphthalen-2-yl)-1H-pyrazole-4-carboxamide] | 21 | 15 |  |
| NC(=O)c1c(-c2ccc3ccccc3c2)nn(CCN2CCOCC2)c1N [Compound 23, 5-amino-1-(2-morpholinoethyl)-3-(naphthalen-2-yl)-1H-pyrazole-4-carboxamide] | 18 | 5 |  |
| CC(C)(C)n1nc(-c2ccc3cc(O)ccc3c2)c(C(N)=O)c1N [Compound 24, 5-amino-1-(tert-butyl)-3-(6-hydroxynaphthalen-2-yl)-1H-pyrazole-4-carboxamide] | 17 |  |  |
| Cc1oc2ccccc2c1-c1nn(C(C)(C)C)c(N)c1C(N)=O [Compound 27, 5-amino-1-(tert-butyl)-3-(2-methylbenzofuran-3-yl)-1H-pyrazole-4-carboxamide] |  | 710 |  |
| Cn1nc(N)c2ccc(-c3nn(C(C)(C)C)cc3C(N)=O)cc21 [Compound 29, 3-(3-amino-1-methyl-1H-indazol-6-yl)-1-(tert-butyl)-1H-pyrazole-4-carboxamide] |  |  | 17 |
| Cn1ncc2cc(-c3nn(C(C)(C)C)c(N)c3C(N)=O)ccc21 [Compound 30, 5-amino-1-(tert-butyl)-3-(1-methyl-1H-indazol-5-yl)-1H-pyrazole-4-carboxamide] | 150 | 32 |  |

| SMILES | IC50 (CpCDPK1) [nM] | IC50 (TgCDPK1) [nM] | IC50 (TgCDPK1; [1]) [nM] |
| --- | --- | --- | --- |
| Cn1c(=O)[nH]c2cc(-c3nn(C(C)(C)C)c(N)c3C(N)=O)ccc21 [Compound 31, 5-amino-1-(tert-butyl)-3-(1-methyl-2-oxo-2,3-dihydro-1H-benzo[d]imidazol-5-yl)-1H-pyrazole-4-carboxamide] | > 3000 |  | 640 |
| Cc1nc2cc(-c3nn(C(C)(C)C)c(N)c3C(N)=O)ccc2n1C [Compound 32, 5-amino-1-(tert-butyl)-3-(1,2-dimethyl-1H-benzo[d]imidazol-5-yl)-1H-pyrazole-4-carboxamide] | > 3000 |  | > 3000 |
| Cn1c(N)nc2cc(-c3nn(C(C)(C)C)c(N)c3C(N)=O)ccc21 [Compound 33, 5-amino-3-(2-amino-1-methyl-1H-benzo[d]imidazol-5-yl)-1-(tert-butyl)-1H-pyrazole-4-carboxamide] |  | 730 |  |
| CC(C)(C)n1nc(-c2ccc3oc(=O)ccc3c2)c(C(N)=O)c1N [Compound 34, 5-amino-1-(tert-butyl)-3-(2-oxo-2H-chromen-6-yl)-1H-pyrazole-4-carboxamide] | 200 | 32 |  |
| CC(C)(C)n1nc(-c2ccc3ccccc3n2)c(C(N)=O)c1N [Compound 35, 5-amino-1-(tert-butyl)-3-(quinolin-2-yl)-1H-pyrazole-4-carboxamide] | 290 | 49 |  |
| CCOc1ccc2nc(-c3nn(C(C)(C)C)c(N)c3C(N)=O)ccc2c1 [Compound 36, 5-amino-1-(tert-butyl)-3-(6-ethoxyquinolin-2-yl)-1H-pyrazole-4-carboxamide] | 390 | 350 |  |
| CC(C)(C)n1nc(-c2ccc3ncccc3c2)c(C(N)=O)c1N [Compound 37, 5-amino-1-(tert-butyl)-3-(quinolin-6-yl)-1H-pyrazole-4-carboxamide] | 70 | 10 |  |
| CC(C)(C)n1nc(-c2cnc3cc(C(F)(F)F)ccc3c2)c(C(N)=O)c1N [Compound 1555, 5-amino-1-tert-butyl-3-(7-(trifluoromethyl)quinolin-3-yl)-1H-pyrazole-4-carboxamide] | 222 |  |  |
| CC(C)(C)n1nc(-c2cnc3cc(OC(F)(F)F)ccc3c2)c(C(N)=O)c1N [Compound 1565, 5-amino-1-tert-butyl-3-(7-(trifluoromethoxy)quinolin-3-yl)-1H-pyrazole-4-carboxamide] | 38 |  | 31 |
| COCCOc1ccc2cc(-c3nn(C(C)(C)C)c(N)c3C(N)=O)cnc2c1 [Compound 1570, 5-amino-1-(tert-butyl)-3-(7-(2-methoxyethoxy)quinolin-3-yl)-1H-pyrazole-4-carboxamide] | 255 |  | 258 |
| CCOc1ccc2cc(-c3nn(CC4CCCCC4)c(N)c3C(N)=O)cnc2c1 [Compound 1574, 5-amino-1-(cyclohexylmethyl)-3-(7-ethoxyquinolin-3-yl)-1H-pyrazole-4-carboxamide] | 30 |  |  |
| CCOc1ccc2cc(-c3nn(CC(F)(F)F)c(N)c3C(N)=O)cnc2c1 [Compound 1575, 5-amino-3-(7-ethoxyquinolin-3-yl)-1-(2,2,2-trifluoroethyl)-1H-pyrazole-4-carboxamide] | 5 |  |  |
| CCOc1ccc2cc(-c3nn(CCO)c(N)c3C(N)=O)cnc2c1 [Compound 1577, 5-amino-3-(7-ethoxyquinolin-3-yl)-1-(2-hydroxyethyl)-1H-pyrazole-4-carboxamide] | 89 |  | 181 |
| CC(C)(C)n1nc(-c2cnc3cc(OCC4CC4)ccc3c2)c(C(N)=O)c1N [Compound 1585, 5-amino-1-(tert-butyl)-3-(7-(cyclopropylmethoxy)quinolin-3-yl)-1H-pyrazole-4-carboxamide] | 9 |  |  |
| CC(C)(C)n1nc(-c2cnc3cc(OC4CC4)ccc3c2)c(C(N)=O)c1N [Compound 1586, 5-amino-1-(tert-butyl)-3-(7-cyclopropoxyquinolin-3-yl)-1H-pyrazole-4-carboxamide] | 5 |  |  |
| CC(C)(C)COc1ccc2cc(-c3nn(C(C)(C)C)c(N)c3C(N)=O)cnc2c1 [Compound 1587, 5-amino-1-(tert-butyl)-3-(7-(neopentyloxy)quinolin-3-yl)-1H-pyrazole-4-carboxamide] | 490 |  | 175 |
| CCc1ccc2cc(-c3nn(C(C)(C)C)c(N)c3C(N)=O)cnc2c1 [Compound 1592, 5-amino-1-(tert-butyl)-3-(7-ethylquinolin-3-yl)-1H-pyrazole-4-carboxamide] | 85 |  |  |
| CCOc1ccc2cc(-c3n[nH]c(N)c3C(N)=O)cnc2c1 [Compound 1593, 5-amino-3-(7-ethoxyquinolin-3-yl)-1H-pyrazole-4-carboxamide] | 67 |  | 164 |
| CCOc1ccc2cc(-c3nn(C(C)C(C)C)c(N)c3C(N)=O)cnc2c1 (stereo not shown) [Compound 1628, 5-amino-3-(7-ethoxyquinolin-3-yl)-1-(3-methylbutan-2-yl)-1H-pyrazole-4-carboxamide] | 5 |  |  |
| CCOc1ccc2cc(-c3nn(C4CCOC4)c(N)c3C(N)=O)ccc2n1 (stereo not shown) [Compound 1634, 5-amino-3-(2-ethoxyquinolin-6-yl)-1-(tetrahydrofuran-3-yl)-1H-pyrazole-4-carboxamide] | 3 |  |  |
